According to patent US20260224532A1, “ESTROGEN RECEPTOR BETA LIGANDS FOR THE PREVENTION AND TREATMENT OF MULTIPLE SCLEROSIS (MS) AND OTHER DEMYELINATING, INFLAMMATORY AND NEURODEGENERATIVE DISEASES” (The Board of Trustees of the University of Illinois, priority 2023, published 2026):
Entries after “also recorded” stand apart in the source; their conditions may differ. Where two headings read alike, the source gives them in different places.

Tests used:
[1] = system: uterus; experiment: Uterotrophic effect (uterine weight) in non-ovariectomized mice of the cuprizone study; format: in vivo; details: daily SC 5 mg/kg
Description: The uterus was taken from the mice treated with compounds 5 and 7 from the recovery assessment study using the Cuprizone-induced demyelination model. Uterine weight for each compound is represented by % uterus/body weight.
Estrogens increase uterine weight by acting primarily through ERα (Hewitt and Korach, 2003).

[2] = molecular target: T1, purified, full length human ERβ (Homo sapiens, UniProt Q92731); experiment: Relative binding affinity (RBA) radiometric competitive binding assay, ERβ; details: for β/α (ERβ/ERα selectivity): ratio of RBA ERβ to RBA ERα
T1 construct: purified, full length human ERα and ERβ
T1 sequence (Q92731 whole entry): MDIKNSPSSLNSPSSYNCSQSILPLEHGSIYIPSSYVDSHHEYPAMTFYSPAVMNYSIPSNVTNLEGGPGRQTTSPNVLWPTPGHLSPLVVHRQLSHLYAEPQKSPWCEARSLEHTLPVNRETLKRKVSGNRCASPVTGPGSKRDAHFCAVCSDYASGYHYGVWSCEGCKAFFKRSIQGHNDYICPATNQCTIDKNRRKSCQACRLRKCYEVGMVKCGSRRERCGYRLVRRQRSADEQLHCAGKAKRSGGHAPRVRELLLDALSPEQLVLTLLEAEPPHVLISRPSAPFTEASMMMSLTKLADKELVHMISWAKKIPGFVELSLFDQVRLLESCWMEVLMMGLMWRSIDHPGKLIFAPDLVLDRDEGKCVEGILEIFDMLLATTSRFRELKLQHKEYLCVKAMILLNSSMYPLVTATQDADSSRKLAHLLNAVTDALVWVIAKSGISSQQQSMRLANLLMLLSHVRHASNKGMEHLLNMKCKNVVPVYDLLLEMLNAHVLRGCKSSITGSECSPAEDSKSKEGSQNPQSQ

[3] = molecular target: T2, purified, full length human ERα (Homo sapiens, UniProt P03372); experiment: Relative binding affinity (RBA) radiometric competitive binding assay, ERα; details: relative binding affinity, E2 (estradiol) is 100%; tritiated estradiol tracer
T2 construct: purified, full length human ERα and ERβ
T2 sequence (P03372 1-595): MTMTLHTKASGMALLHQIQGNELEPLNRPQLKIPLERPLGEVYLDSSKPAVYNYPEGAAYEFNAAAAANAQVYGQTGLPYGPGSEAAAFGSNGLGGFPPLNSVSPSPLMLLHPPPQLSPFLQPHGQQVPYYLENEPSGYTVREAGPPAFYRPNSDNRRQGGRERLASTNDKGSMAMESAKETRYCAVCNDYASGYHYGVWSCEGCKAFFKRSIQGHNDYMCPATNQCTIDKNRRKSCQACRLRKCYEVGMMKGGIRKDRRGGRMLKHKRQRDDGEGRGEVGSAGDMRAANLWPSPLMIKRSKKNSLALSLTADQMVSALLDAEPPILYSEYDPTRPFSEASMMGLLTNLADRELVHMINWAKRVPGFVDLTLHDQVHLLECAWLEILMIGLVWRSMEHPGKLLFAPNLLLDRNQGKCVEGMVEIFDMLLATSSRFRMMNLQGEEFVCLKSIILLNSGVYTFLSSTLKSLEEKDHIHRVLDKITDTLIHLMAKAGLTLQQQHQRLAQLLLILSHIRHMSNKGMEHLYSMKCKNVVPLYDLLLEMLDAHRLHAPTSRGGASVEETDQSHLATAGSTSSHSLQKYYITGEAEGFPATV

[4] = system: Cuprizone-Induced Demyelinated Mouse Model; experiment: Myelin recovery in the cuprizone-induced demyelinated mouse model (MOG IHC, Corpus Callosum); format: in vivo, C57BL/6 female mice
Method: The Cuprizone assay of demyelination-remyelination was conducted by the methods described previously (Moore et al. 2013; Crawford et al, 2009a,b). A group of animals was on normal diet (N groups). The remainder of the mice were divided into groups of 5 and all of these groups of mice were fed cuprizone diet at (0.2% cuprizone mixed in chow). After 6 weeks on cuprizone diet-induced demyelination, a group of 5 mice were perfused (DM group). The other groups of mice were switched to normal diet for 1.5 weeks to initiate remyelination and were treated with either (i) Vehicle (SC+V) or (ii) test compound at a dose of 5 mg/kg. […] After 1.5 weeks of normal diet-induced remyelination, the mice were perfused. Brains were collected, cryoprotected, embedded, cut, and IHC for myelin oligodendrocyte glycoproteins (MOG) was performed. Cuprizone study results after 1.5-weeks treatment with the designated 7-substituted compounds via SC administration following 6 weeks cuprizone treatment of (C57BL/6) female mice are shown in FIG. 5. The height of each bar graph represents level of myelination assessed by the expression of MOG in the white matter tracks of the Corpus Callosum area quantified by immunohistochemical analysis (IHC) after staining with a MOG antibody. N: Normal diet, DM: Demyelinated status after 6 weeks cuprizone treatment, SC-Veh: Spontaneous remyelination after injection with matrix in saline solution only (without compound; recovery is only about 40%). (Mice: ~2 months age, SC: Subcutaneous injection, n=5). Cuprizone study results for the 3-weeks treatment with the 6-substituted compound 17 via SC administration following the 6 weeks of 0.2% cuprizone treatment of C57BL/6 female mice are shown in FIG. 6. The height of each bar graph represents level of myelination assessed by the expression of MOG in the white matter tracks of the Corpus Callosum area quantified by immunohistochemical analysis (IHC) after staining with a MOG antibody. N: Normal diet, DM: Demyelinated status after 6 weeks cuprizone treatment, SC-Veh: Spontaneous remyelination after injection with matrix in saline solution only (without compound; recovery is only about 40%). (Mice: ~2 months age, SC: Subcutaneous injection, n=5~6). […] (Mice: ~2 months age, s.c.: Subcutaneous administration, n=5).

[5] = system: Primary OPCs; experiment: Primary OPC culture: MBP+ OL differentiation and total cell count (DAPI); format: cell-based, mouse; details: for number of MBP+ OLs with increased percentage of branched OLs, compared to vehicle-treated cells: 10 nM; for MBP expression / number of MBP+ OLs, compared to vehicle-treated cells: 1 nM
Method: Primary OPC Cultures: Primary OPCs, isolated from postnatal day P1 C57BL/6 male and female mouse cortices as described previously, are treated with 10 nM ligands in differentiating medium for […] (Tiwari-Woodruff et al., 2001; Tiwari-Woodruff et al., 2006). Primary OPC are cultured into 8-well chamber slides (three wells per condition, 2.5×10^5 cells/well) for three days to attach and five days in differentiating media (consisting of DMEM-F12 with triiodothyronine- and thyroxine-containing Sato as well as penicillin, streptomycin, insulin, N-acetyl-L-cysteine, forskolin, ciliary neurotrophic factor, neurotrophin-3, and platelet-derived growth factor […] (Tiwari-Woodruff et al., 2001)). A positive control (IndC1), a negative control (Vehicle consisting of the media+EtOH mixture used to dissolve IndCl), and a normal control (differentiating media alone) are used for comparison. At the end of the treatment period, cells are fixed, stained by immunocytochemistry (primary antibody polyclonal chicken myelin basic protein (MBP, Millipore AB9348), and co-stained with nuclear stain-DAPI), and imaged with an Olympus BX61 confocal microscope (Olympus America Inc., Center Valley, PA) at 10× magnification (3 images per well). Cells are counted using the ImageJ multipoint tool, and counts are then divided by the image area (mm^2). Average cell density for each condition is then divided by the normal condition cell density. Analysis of OL differentiation consists of counting the number of MBP+ cells and process extensions that are longer than the respective cell-body diameter and tracking the number of highly branched MBP+ cells (with three or more processes) (Monnerie et al., 2017). Statistics are performed using GraphPad Prism 6 Software (La Jolla, CA). One-way ANOVA with Tukey's posthoc test for multiple comparisons is used to generate p-values, and data are presented as mean±SEM (with α≤0.05).
FIG. 1A-1D show the effects of treatment with the 7-substituted indazole compounds on the expression of myelin basic protein in OLs (MBP^+-OLs, top two panels) as an indication of murine oligodendrocyte precursor cell (OPC) differentiation, as well as the count of the total cells as an indication of cell proliferation/survival (DAPI nucleus stain, bottom two panels). The cells were treated with the listed compounds at 10 nM (FIG. 1A, 1B) and at 1 nM (FIG. 1C, 1D).

[6] = 2-hour single-point pharmacokinetic (PK) study, blood and brain; format: in vivo, C57BL/6 female mice; details: for Kp at 2 h: female, C57BL/6, mouse, brain / blood
Method: The 2-Hour single-point pharmacokinetics for IndCl-7-Cl (compound 7), IndCl-7-Br-3′-OH (compound 12), and IndCl-7-Cl-3′-F (compound 14) was examined in (two and half month old C57BL/6 female) mice after single subcutaneous (SC) injection or oral gavage (PO) in 0.1 mL at a dose 5 mg/kg for SC and 25 mg/kg for PO administration. The vehicle for SC administration was 0.1 mL 10% ethanol and 90% Miglyol 812N or 10% DMSO saline and for PO administration, 0.1 mL 2-hydroxypropyl-beta-cyclodextrin [HPCD]/40% aqueous solution MW ~1540. Two hours after injection blood and brain were collected and processed for quantification of the administered compound at the University of Illinois Metabolomics Core Facility by liquid chromatography-mass spectrometry (LC-MS/MS). The bar graphs indicate the analyzed concentration in the blood and the brain in nM units for each sample and each administered method. The brain uptake ratio over the blood of compound 7 (IndCl-7-C1) in the PO and SC pharmacokinetic study is as high as ~7 and ~6, respectively.
For subcutaneous (SC) injection, the compound made up as a homogeneous suspension in 10% ethanol and 90% Miglyol 812N (vehicle; Sasol) and a 0.1 mL dose was administered by SC injection at a dose of 5 mg/kg body weight. For PO administration, the compound was dissolved into 40% (2-Hydroxypropyl)-β-cyclodextrin (Mw~ 1540)(HP-CD) and administered via oral gavage in a volume of 0.1 mL at a dose of 25 mg/kg body weight.

[7] = SC 5 mg/kg, 1.5-weeks treatment after 6 weeks cuprizone

β/α (ERβ/ERα selectivity) [2]	RBA ERα [3]	RBA ERβ ([2]; relative binding affinity, E2 (estradiol) is 100%, tritiated estradiol tracer)	Kp at 2 h ([6]; PO 25 mg/kg, 2 hours, n=3, read-out: concentration in brain relative to concentration in blood)	concentration in the brain after PO administration compared with SC injection ([6]; PO 25 mg/kg vs SC 5 mg/kg, 2 hours)	brain uptake (in words) ([6]; PO 25 mg/kg, 2 hours)	brain uptake (in words) ([6]; SC 5 mg/kg, 2 hours)	Kp at 2 h ([6]; PO 25 mg/kg, 2 hours after dosing, read-out: brain uptake ratio over the blood)	Kp at 2 h ([6]; SC 5 mg/kg, 2 hours after dosing, read-out: brain uptake ratio over the blood)	SMILES	uterotrophic effect, uterine weight (% uterus/body weight) vs vehicle [1]	remyelination (MOG expression in Corpus Callosum) [4, 7]	number of MBP+ OLs with increased percentage of branched OLs, compared to vehicle-treated cells [5]	remyelination (MOG expression in Corpus Callosum) ([4]; SC, 3-weeks treatment after 6 weeks of 0.2% cuprizone)	MBP expression / number of MBP+ OLs, compared to vehicle-treated cells [5]
23	6.95%								Oc1ccc(-n2nc3c(Br)cc(O)cc3c2I)cc1 [Compound 5, 7-bromo-2-(4-hydroxyphenyl)-3-iodo-2H-indazol-5-ol]	did not show uterotrophic effects significantly different from mice treated with vehicle alone; also recorded: did not stimulate the uterus weight significantly	somewhat less remyelination	significant increase		
48.7	0.968%	47.11%	3						Oc1ccc(-n2nc3cc(F)c(O)cc3c2Cl)cc1 [Compound 17, 3-chloro-6-fluoro-2-(4-hydroxyphenyl)-2H-indazol-5-ol]			significant increase	recover above the normal level; also recorded: accelerate remyelination to reach a level at or above the normal level	good MBP expression; also recorded: significant increase
45	6.9 ± 2.4%			markedly higher	selective high brain uptake	selective high brain uptake	~7	~6	Oc1ccc(-n2nc3c(Cl)cc(O)cc3c2Cl)cc1 [Compound 7, 3,7-dichloro-2-(4-hydroxyphenyl)-2H-indazol-5-ol]	did not show uterotrophic effects significantly different from mice treated with vehicle alone; also recorded: did not stimulate the uterus weight significantly	accelerates remyelination, reaching levels at or above the normal myelin level	significant increase		particularly significant increase
